Data as given in the NIST ThermoML archive (doi:10.1021/acs.jced.7b00904).
± gives the expanded uncertainty stated by the source.

Experiment: wn = mass fraction of the nth substance listed
Conditions: 295 K; for surface tension liquid-gas: Wilhelmi plate; for mass density / viscosity: 101.3 kPa, Liquid; for mass density: Buoyancy - hydrostatic balance; for viscosity: Concentric cylinders viscometry

N#C[S-].[K+] [potassium thiocyanate] + O
surface tension liquid-gas (w1 = 0.03): 67.25 ± 1.1 mN/m | surface tension liquid-gas (w1 = 0.05): 61.98 ± 5.4 mN/m | surface tension liquid-gas (w1 = 0.07): 58.59 ± 13 mN/m | surface tension liquid-gas (w1 = 0.1): 57.2 ± 13 mN/m | surface tension liquid-gas (w1 = 0.2): 57.79 ± 4.6 mN/m | surface tension liquid-gas (w1 = 0.4): 55.45 ± 5.8 mN/m | surface tension liquid-gas (w1 = 0.5): 56.47 ± 5.4 mN/m | surface tension liquid-gas (w1 = 0.6): 62.93 ± 3.9 mN/m | surface tension liquid-gas (w1 = 0.65): 73.26 ± 1.2 mN/m | surface tension liquid-gas (w1 = 0.68): 74.62 ± 1.2 mN/m | mass density (w1 = 0.03): 1013 ± 6 kg/m3 | mass density (w1 = 0.05): 1022 ± 6 kg/m3 | mass density (w1 = 0.07): 1031 ± 6 kg/m3 | mass density (w1 = 0.1): 1047 ± 6 kg/m3 | mass density (w1 = 0.2): 1100 ± 6 kg/m3 | mass density (w1 = 0.3): 1157 ± 6 kg/m3 | mass density (w1 = 0.4): 1218 ± 6 kg/m3 | mass density (w1 = 0.5): 1283 ± 6 kg/m3 | mass density (w1 = 0.6): 1353 ± 6 kg/m3 | mass density (w1 = 0.65): 1392 ± 6 kg/m3 | mass density (w1 = 0.68): 1414 ± 6 kg/m3 | viscosity (w1 = 0.03): 0.834 ± 0.07 mPa·s | viscosity (w1 = 0.05): 0.845 ± 0.07 mPa·s | viscosity (w1 = 0.07): 0.825 ± 0.07 mPa·s | viscosity (w1 = 0.1): 0.843 ± 0.07 mPa·s | viscosity (w1 = 0.2): 0.881 ± 0.07 mPa·s | viscosity (w1 = 0.3): 0.916 ± 0.07 mPa·s | viscosity (w1 = 0.4): 1.101 ± 0.07 mPa·s | viscosity (w1 = 0.5): 1.321 ± 0.071 mPa·s | viscosity (w1 = 0.6): 1.979 ± 0.071 mPa·s | viscosity (w1 = 0.65): 2.588 ± 0.073 mPa·s | viscosity (w1 = 0.68): 3.125 ± 0.074 mPa·s
